Measured values published in PubChem BioAssay (NCI).
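Method: 48-hour compound exposure of cells in 96-well plates, five concentrations, linear interpolation of endpoints. The concentration for full growth arrest is given as TGI.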

Tests used:
Test in all cases: growth of human tumour cells (NCI), 48 h
MDA-MB-435 = system: MDA-MB-435
HCC-2998 colon = system: HCC-2998 colon
SF-295 CNS = system: SF-295 CNS
NCI/ADR-RES ovarian = system: NCI/ADR-RES ovarian
M14 melanoma = system: M14 melanoma
786-0 renal = system: 786-0 renal
CCRF-CEM leukemia = system: CCRF-CEM leukemia
UO-31 renal = system: UO-31 renal
SNB-75 CNS = system: SNB-75 CNS
MDA-MB-231 breast = system: MDA-MB-231 breast

Compound	TGI (MDA-MB-435)	TGI (HCC-2998 colon)	TGI (SF-295 CNS)	TGI (NCI/ADR-RES ovarian)	TGI (M14 melanoma)	TGI (786-0 renal)	TGI (CCRF-CEM leukemia)	TGI (UO-31 renal)	TGI (SNB-75 CNS)	TGI (MDA-MB-231 breast)
Nn1c(Nc2ccc(S(N)(=O)=O)cc2)nnc(/C=C/c2c(O)ccc3ccccc23)c1=O	50.1 µM	51.9 µM	96.8 µM	54 µM	69.8 µM	66.8 µM	18.8 µM	57.3 µM		
CC(C)C(Nc1ncnc2nc[nH]c12)C(=O)O (stereo unspecified)	> 100 µM		> 100 µM	> 100 µM	> 100 µM	> 100 µM	> 100 µM	> 100 µM	> 100 µM	> 100 µM
O=c1ccc2ccc(CBr)cc2o1	10.4 µM	9.53 µM	28.7 µM	3.73 µM	8.92 µM				> 100 µM	4.14 µM
CC#C[C@]1(O)CCC2[C@@H]3CCC4=CC(=O)CCC4=C3[C@@H](c3ccc(N(C)C)cc3)C[C@@]21C (stereo partly specified)	34 µM		30.1 µM	89.3 µM	32.1 µM	37.2 µM	37.5 µM	28.2 µM		35.4 µM
CC(C)(C)N/N=C(\C(=O)Nc1cccc(Cl)c1)C1C(=O)Nc2ccccc2S1=O (stereo unspecified)		> 100 µM	> 100 µM		> 100 µM	> 100 µM	> 100 µM	> 100 µM	> 100 µM	
COc1ccc2c(c1)CC[C@@H]1C2CC[C@]2(C)C(=O)N(CCN(C)C)C(=O)CC12 (stereo partly specified)	> 100 µM	> 100 µM	> 100 µM		> 100 µM	> 100 µM	> 100 µM	> 100 µM	> 100 µM	> 100 µM
CSc1ncc2c(n1)-c1ccccc1OC2N1CCOCC1 (stereo unspecified)	> 100 µM		> 100 µM	> 100 µM	> 100 µM	> 100 µM	> 100 µM	> 100 µM	> 100 µM	> 100 µM
O=c1[nH]c2ccccc2c(O)c1Cc1ccccc1	> 100 µM	> 100 µM	> 100 µM	> 100 µM		> 100 µM	> 100 µM		> 100 µM	> 100 µM
Cc1cc2nc3c(C#N)c4c(c(Nc5ccc(F)cc5)n3c2cc1C)CCC4	> 100 µM		> 100 µM	> 100 µM	> 100 µM	> 100 µM	> 100 µM		> 100 µM	> 100 µM
CC(=O)c1ccccc1NC(=O)C(=O)C(C(=O)c1ccc2ccccc2c1)C1OC(=O)c2ccccc21 (stereo unspecified)		18.3 µM			36.6 µM	20.9 µM	40 µM	29.1 µM	25.6 µM	
Clc1cc(-c2ccccc2)nc(Nc2nc3ccccc3[nH]2)n1	83.4 µM		> 100 µM	> 100 µM	63 µM	34.2 µM	27.6 µM	> 100 µM	> 100 µM	33.9 µM
CCOC(=O)c1c(NS(=O)(=O)c2ccc(C)cc2)sc2c1CCCC2			> 100 µM	> 100 µM	> 100 µM	> 100 µM	> 100 µM	72.7 µM	66.7 µM	72.8 µM
